This note sets out measurements from US11472806B2, “Substituted heterocyclic compounds as allosteric modulators of group II metabotropic glutamate receptors” (Domain Therapeutics, priority 2017, dated 2022).

pEC50: −log10 of the molar value. Where a name gives a salt, the structure may show the parent alone.

For the assay, the target named is T1, human mGluR3 (hmGluR3) (Homo sapiens, UniProt Q14832).
T1 construct: expressed in transfected cells; host or cells: HEK-293 cells, transient co-transfection by electroporation
T1 sequence (Q14832 23-879): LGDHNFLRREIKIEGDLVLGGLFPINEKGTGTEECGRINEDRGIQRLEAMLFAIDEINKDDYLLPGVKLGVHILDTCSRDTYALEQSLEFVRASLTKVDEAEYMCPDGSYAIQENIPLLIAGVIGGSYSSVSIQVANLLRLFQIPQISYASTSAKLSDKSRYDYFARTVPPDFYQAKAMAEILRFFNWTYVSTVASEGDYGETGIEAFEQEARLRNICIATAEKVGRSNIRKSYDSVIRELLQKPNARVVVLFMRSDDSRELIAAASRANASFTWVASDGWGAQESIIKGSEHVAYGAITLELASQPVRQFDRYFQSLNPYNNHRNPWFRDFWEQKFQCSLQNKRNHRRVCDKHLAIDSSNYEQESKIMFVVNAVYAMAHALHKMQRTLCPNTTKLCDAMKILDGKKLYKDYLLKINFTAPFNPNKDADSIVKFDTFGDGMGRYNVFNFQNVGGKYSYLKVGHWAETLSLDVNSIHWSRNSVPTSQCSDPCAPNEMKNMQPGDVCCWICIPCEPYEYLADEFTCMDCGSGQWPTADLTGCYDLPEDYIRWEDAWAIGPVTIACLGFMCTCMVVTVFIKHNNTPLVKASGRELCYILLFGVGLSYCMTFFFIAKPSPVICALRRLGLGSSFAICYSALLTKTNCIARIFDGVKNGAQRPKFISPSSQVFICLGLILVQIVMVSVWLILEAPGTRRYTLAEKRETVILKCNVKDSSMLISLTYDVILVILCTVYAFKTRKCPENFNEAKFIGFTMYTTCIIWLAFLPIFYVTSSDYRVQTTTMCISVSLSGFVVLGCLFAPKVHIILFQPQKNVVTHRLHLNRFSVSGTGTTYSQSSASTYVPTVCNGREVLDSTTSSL
The experiment in a line: Human mGluR3 positive allosteric modulator evaluation using Ca++ functional assay. To be noted: hmGluR3 transiently over-expressed in HEK-293 cells; cells stimulated by an EC50 glutamate concentration; intracellular Ca2+ (Fluo4AM, FLIPR Tetra). In kind it is cell-based. As to the method: Example 89: Human mGluR3 Positive Allosteric Modulator Evaluation Using Ca++ Functional Assay
Compounds of the present invention were tested successively for their agonist and positive allosteric modulator activities on human mGluR3 (hmGluR3) transiently over-expressed in HEK-293 cells. Compounds exert agonist activity if they are able to activate hmGluR3 by themselves, i.e., in absence of the endogenous agonist glutamate; and they exert positive allosteric modulator activity if they increase the action of the endogenous agonist glutamate.
Cell Culture and Transfection:
HEK-293 cells were maintained in Modified Eagle's Medium supplemented with 10% Foetal Calf Serum, 1% Penicillin/Streptomycin and 1% non-essential amino acids at 37° C./5% CO2. Cells were co-transfected by electroporation with four DNA plasmids encoding hmGluR3, a chimeric G protein allowing redirection of the activation signal toward intracellular calcium pathway, and two glutamate transporters so as to decrease extracellular glutamate levels and avoid receptor desensitization (Brabet I et al., Neuropharmacology 37(8), 1043-51, 1998). After transfection, cells were seeded in 75 cm^2 culture flasks, and cultured for 24 h.
Calcium Assa EC50 determination:
Receptor activity was detected by changes in intracellular calcium measured using the fluorescent Ca^2+ sensitive dye, Fluo4AM (Molecular Probes).
The day of the assay, medium was aspirated and replaced during 3 hrs by freshly prepared buffer B (HBSS 1×, Hepes 20 mM, MgSO4-7H2O 1 mM, Na2CO3 3.3 mM, CaCl2-2H2O 1.3 mM, 0.5% BSA, Probenecid 2.5 mM). Then, cells were loaded at 37° C./5% CO2 for 1.5 hrs with buffer B containing 1 μM Fluo4AM, 0.1 mg/mL Pluronic Acid, 7 μg/mL Glutamate Pyruvate Transaminase and 2 mM sodium pyruvate. Afterwards cells were washed with buffer B. Cells were then detached from the 75 cm^2 culture flasks with Accutase® (5 min incubation at 37° C.), centrifuged (5 min at 840 rpm), resuspended in buffer B and finally seeded at a density of 30,000 cells/well in black-walled clear-bottom 384-well plates. Addition of compounds on cells and intracellular Ca^2+ measurements (excitation 485 nm, emission 525 nm) were performed by the fluorescence microplate reader FLIPR Tetra (Molecular Devices).
Agonist and positive allosteric modulator activities of compounds were consecutively evaluated on the same cells plate. Agonist activity was first tested during 10 min with the addition of compound alone on the cells. Then, the cells were stimulated by an EC50 glutamate concentration and fluorescence was recorded for additional 3 min. EC50 glutamate concentration is the concentration giving 50% of the maximal glutamate response. Agonist and/or positive allosteric modulator activity(ies) were evaluated in comparison to basal signal or signal evoked by EC50 glutamate concentration alone, respectively.
For potency determination, a dose-response test was performed using 20 concentrations of each compound of the invention. Dose-response curves were fitted using the sigmoïdal dose-response (variable slope) analysis in XLfit Scientific Curve Fitting for Excel (IDBS). EC50 of agonist/EC50 of positive allosteric modulator activity(ies) were calculated. Dose-response experiments were all performed in duplicate, two times independently.
What is called pEC50 is the EC50 on a negative log10 scale, so that one unit is a factor of ten. The low end stands for a large EC50, the high end for a small EC50. `Cc1ncccc1-c1cc2c(cn1)C1(CC1)N(C)C(=O)c1cccn1-2` [Example 3, 2′-(2-Methyl-pyridin-3-yl)-6′-methylspiro[cyclopropane-1,5′-pyrido[3,4-f]pyrrolo[1,2-a][1,4]diazepin]-7′(6 ^1H)-one] had a pEC50 of 5.00 to 6.00.

In turn, `Cc1ncccc1-c1cnc2c(c1)-n1cccc1C(=O)N(C)C2` [Example 6, 5-Methyl-9-(2-methyl-pyridin-3-yl)-5,6-dihydro-5,7,10b-triaza-benzo[e]azulen-4-one, dihydrochloride] gave a pEC50 of under 5.00. In the case of `Cc1ncccc1-c1cnc2c(n1)-n1cccc1C(=O)N(C)C2` [Example 7, 5-Methyl-9-(2-methyl-pyridin-3-yl)-5,6-dihydro-5,7,10,10b-tetraaza-benzo[e]azulen-4-one, dihydrochloride] it was 5.00 to 6.00.

In turn, `CN1Cc2ncc(-c3cccc(C#N)c3)cc2-n2cccc2C1=O` [Example 11, 3-(5-Methyl-4-oxo-5,6-dihydro-4H-5,7,1 b-triaza-benzo[e]azulen-9-yl)-benzonitrile] gave a pEC50 of under 5.00.

`CN1Cc2ncc(-c3ccc4nccn4c3)cc2-n2cccc2C1=O` [Example 12, 9-Imidazo[1,2-a]pyridin-6-yl-5-methyl-5,6-dihydro-5,7,10b-triaza-benzo[e]azulen-4-one]: the negative logarithm of the EC50 (pEC50) was under 5.00. The same measure for `Cc1ncccc1-c1ccc2c(c1)-n1cccc1C(=O)N(C)C21CCC1` [Example 17, 9-(2-Methyl-pyridin-3-yl)-5-methyl-5,6-dihydro-spiro[benzo[f]pyrrolo[, 2-a][1,4]diazepine-6,1′-cyclobutan]-4-one]: 6.00 to 7.00. In the case of `Cc1ncccc1-c1ccc2c(c1)-c1ccccc1C(=O)N(C)C21CC1` [Example 21, 10-(2-Methyl-pyridin-3-yl)-6-methyl-6,7-dihydro-spiro[dibenzo[c,e]azepine-7,1′-cyclopropan]-5-one, hydrochloride] it was 6.00 to 7.00. The same measure for `Cc1ncccc1-c1ccc2c(c1)-c1ccc(Cl)cc1C(=O)N(C)C21CC1` [Example 22, 3-Chloro-10-(2-methyl-pyridin-3-yl)-6-methyl-6,7-dihydro-spiro[dibenzo[c, e]azepine-7,1′-cyclopropan]-5-one]: 5.00 to 6.00. `Cc1ncccc1-c1ccc2c(c1)-c1ccc(-c3ccnn3C)cc1C(=O)N(C)C21CC1` [Example 23, 3-(2-Methyl-2H-pyrazol-3-yl)-10-(2-methyl-pyridin-3-yl)-6-methyl-6,7-dihydro-spiro[dibenzo[c, e]azepine-7,1′-cyclopropan]-5-one] had a pEC50 of 6.00 to 7.00. Molecule `CN1Cc2ccc(-c3cccc(C#N)c3)cc2-c2cccnc2C1=O` [Example 25, 3-(6-Methyl-5-oxo-6,7-dihydro-5H-4,6-diaza-dibenzo[a,c]cyclohepten-10-yl)-benzonitrile] had a pEC50 of 6.00 to 7.00. The same measure for `Cc1ncccc1-c1ccc2c(c1)-c1cccnc1C(=O)N(C)C2` [Example 26, 6-Methyl-10-(2-methyl-pyridin-3-yl)-6,7-dihydro-4,6-diaza-dibenzo[a, c]cyclohepten-5-one]: 6.00 to 7.00. In the case of `CN1Cc2ccc(-c3ccc(F)nc3)cc2-c2cccnc2C1=O` [Example 27, 10-(6-Fluoro-pyridin-3-yl)-6-methyl-6,7-dihydro-4,6-diaza-dibenzo[a, c]cyclohepten-5-one] it was 6.00 to 7.00.

`CN1Cc2ccc(-c3ccc(F)cn3)cc2-c2cccnc2C1=O` [Example 28, 10-(5-Fluoro-pyridin-2-yl)-6-methyl-6,7-dihydro-4,6-diaza-dibenzo[a, c]cyclohepten-5-one] gave a pEC50 of 6.00 to 7.00.

The molecule `Cc1ncccc1-c1ccc2c(c1)-c1ccc(F)nc1C(=O)N(C)C2` [Example 30, 3-Fluoro-6-methyl-10-(2-methyl-pyridin-3-yl)-6,7-dihydro-4,6-diaza-dibenzo[a, c]cyclohepten-5-one] had a pEC50 of 5.00 to 6.00.

`CN1Cc2ccc(-c3ccc(F)nc3)cc2-c2ccc(F)nc2C1=O` [Example 31, 3-Fluoro-10-(6-fluoro-pyridin-3-yl)-6-methyl-6,7-dihydro-4,6-diaza-dibenzo[a, c]cyclohepten-5-one] had a pEC50 of 5.00 to 6.00. The same measure for `CN1Cc2ccc(-c3ccc(F)cn3)cc2-c2ccc(F)nc2C1=O` [Example 32, 3-Fluoro-10-(5-fluoro-pyridin-2-yl)-6-methyl-6,7-dihydro-4,6-diaza-dibenzo[a, c]cyclohepten-5-one]: 5.00 to 6.00; for `COc1ccc2c(n1)C(=O)N(C)Cc1ccc(-c3ccc(F)cn3)cc1-2` [Example 34, 10-(5-Fluoro-pyridin-2-yl)-3-methoxy-6-methyl-6,7-dihydro-4,6-diaza-dibenzo[a, c]cyclohepten-5-one]: 6.00 to 7.00. The same measure for `COc1ccc2c(n1)C(=O)N(C)Cc1ccc(-c3cccnc3C)cc1-2` [Example 36, 3-Methoxy-6-methyl-10-(2-methyl-pyridin-3-yl)-6,7-dihydro-4,6-diaza-dibenzo[a, c]cyclohepten-5-one]: 6.00 to 7.00. In the case of `Cc1ccc2c(n1)C(=O)N(C)Cc1ccc(-c3ccc(F)nc3)cc1-2` [Example 39, 10-(6-Fluoro-pyridin-3-yl)-3,6-dimethyl-6,7-dihydro-4,6-diaza-dibenzo[a, c]cyclohepten-5-one] it was 6.00 to 7.00; in that of `Cc1ccc2c(n1)C(=O)N(C)Cc1ccc(-c3ccc(F)cn3)cc1-2` [Example 40, 10-(5-Fluoro-pyridin-2-yl)-3,6-dimethyl-6,7-dihydro-4,6-diaza-dibenzo[a, c]cyclohepten-5-one], 6.00 to 7.00. `Cc1ccc2c(n1)C(=O)N(C)Cc1ccc(-c3cccnc3C)cc1-2` [Example 41, 3,6-Dimethyl-10-(2-methyl-pyridin-3-yl)-6,7-dihydro-4,6-diaza-dibenzo[a, c]cyclohepten-5-one] gave a negative logarithm of the EC50 (pEC50) of 6.00 to 7.00. In the case of `Cc1cnc2c(c1)-c1cc(-c3cccnc3C)ccc1CN(C)C2=O` [Example 43, 2,6-Dimethyl-10-(2-methyl-pyridin-3-yl)-6,7-dihydro-4,6-diaza-dibenzo[a, c]cyclohepten-5-one] it was 5.00 to 6.00; in that of `Cc1cnc2c(c1)-c1cc(-c3ccc(F)nc3)ccc1CN(C)C2=O` [Example 44, 10-(6-Fluoro-pyridin-3-yl)-2,6-dimethyl-6,7-dihydro-4,6-diaza-dibenzo[a, c]cyclohepten-5-one], 6.00 to 7.00; in that of `Cc1ncccc1-c1ccc2c(c1)-c1cc(F)cnc1C(=O)N(C)C2` [Example 46, 2-Fluoro-6-methyl-10-(2-methyl-pyridin-3-yl)-6,7-dihydro-4,6-diaza-dibenzo[a, c]cyclohepten-5-one], 5.00 to 6.00. For `CN1Cc2ccc(-c3ccc(F)nc3)cc2-c2cc(F)cnc2C1=O` [Example 47, 2-Fluoro-10-(6-fluoro-pyridin-3-yl)-6-methyl-6,7-dihydro-4,6-diaza-dibenzo[a, c]cyclohepten-5-one], the negative-log EC50 (pEC50) was 6.00 to 7.00.

For the molecule `COc1cnc2c(c1)-c1cc(-c3cccnc3C)ccc1CN(C)C2=O` [Example 48, 2-Methoxy-6-methyl-10-(2-methyl-pyridin-3-yl)-6,7-dihydro-4,6-diaza-dibenzo[a, c]cyclohepten-5-one], the negative logarithm of the EC50 (pEC50) was 6.00 to 7.00.

Molecule `COc1ccc2c(n1)C(=O)N(C)C1(CC1)c1ccc(Cl)cc1-2` [Example 52, 10-chloro-3-methoxy-6-methylspiro[benzo[c]pyrido[3,2-e]azepine-7,1′-cyclopropan]-5(6H)-one] gave a pEC50 of 6.00 to 7.00. On to `Cc1ncccc1-c1ccc2c(c1)-c1ccsc1C(=O)N(C)C2` [Example 55, 5-Methyl-9-(2-methyl-pyridin-3-yl)-5,6-dihydro-3-thia-5-aza-benzo[e]azulen-4-one], for which the pEC50 is 6.00 to 7.00. `Cc1ncccc1-c1ccc2c(c1)-c1c[nH]nc1C(=O)N(C)C2` [Example 57, 5-Methyl-9-(2-methyl-pyridin-3-yl)-5,6-dihydro-2H-2,3,5-triaza-benzo[e]azulen-4-one]: the pEC50 was 5.00 to 6.00. In the case of `Cc1ncccc1-c1ccc2c(c1)-c1cc[nH]c1C(=O)N(C)C2` [Example 59, 5-Methyl-9-(2-methyl-pyridin-3-yl)-5,6-dihydro-3H-3,5-diaza-benzo[e]azulen-4-one] it was 6.00 to 7.00.
